Test results: PubChem BioAssay AID2060883 (Molecular Pharmacology Branch, DTP, NCI, 2025)

System: 843782-103-R-J1-PDC complex spheroid viability
Assay: Anticancer human tumor 843782-103-R-J1-PDC patient-derived lung adenocarcinoma cell line growth inhibition [RAS]
Conditions: for viability, T/C: stronger effect = lower value
Outline: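 Agents were tested in combination matrices in half-log decrements from a top concentration at or near clinical Cmax (10 microM if undetermined). Targets were multi-cell spheroids of tumour lines plus HUVEC and MSC stromal cells.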

[1] = curve of first compound, second compound 0.000949 µM
[2] = curve of first compound, second compound 0.003 µM
[3] = curve of first compound, second compound 0.00949 µM
[4] = curve of first compound, second compound 0.03 µM
[5] = curve of first compound, second compound 0.0949 µM
[6] = curve of first compound, second compound 0.3 µM
[7] = second compound 0.000949 µM, first compound 0.00316 µM
[8] = second compound 0.000949 µM, first compound 0.01 µM
[9] = second compound 0.000949 µM, first compound 0.0316 µM
[10] = second compound 0.000949 µM, first compound 0.1 µM
[11] = second compound 0.003 µM, first compound 0.00316 µM
[12] = second compound 0.003 µM, first compound 0.01 µM
[13] = second compound 0.003 µM, first compound 0.0316 µM
[14] = second compound 0.003 µM, first compound 0.1 µM
[15] = second compound 0.00949 µM, first compound 0.00316 µM
[16] = second compound 0.00949 µM, first compound 0.01 µM
[17] = second compound 0.00949 µM, first compound 0.0316 µM
[18] = second compound 0.00949 µM, first compound 0.1 µM
[19] = second compound 0.03 µM, first compound 0.00316 µM
[20] = second compound 0.03 µM, first compound 0.01 µM
[21] = second compound 0.03 µM, first compound 0.0316 µM
[22] = second compound 0.03 µM, first compound 0.1 µM
[23] = second compound 0.0949 µM, first compound 0.00316 µM
[24] = second compound 0.0949 µM, first compound 0.01 µM
[25] = second compound 0.0949 µM, first compound 0.0316 µM
[26] = second compound 0.0949 µM, first compound 0.1 µM
[27] = second compound 0.3 µM, first compound 0.00316 µM
[28] = second compound 0.3 µM, first compound 0.01 µM
[29] = second compound 0.3 µM, first compound 0.0316 µM
[30] = second compound 0.3 µM, first compound 0.1 µM
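Further: viability read after seven days of compound exposure.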

**Q.** With CCN1CCN(Cc2ccc(Nc3ncc(F)c(-c4cc(F)c5nc(C)n(C(C)C)c5c4)n3)nc2)CC1 + CCn1c(-c2cccnc2C(C)OC)c2c3cc(ccc31)N1CCOC(CC(NC(=O)C(C(C)C)N(C)C(=O)C3(F)CCN(C(=O)C#CC(C)(C)N(C)C)CC3)C(=O)N3CCCC(N3)C(=O)OCC(C)(C)C2)C1 as the compound, how does the IC50 [1] read?
**A.** Its IC50 is 197 nM.

**Q.** And the IC50 [2]?
**A.** The IC50 was 291 nM.

**Q.** And the IC50 [3]?
**A.** Its IC50 is 237 nM.

**Q.** And the IC50 [4]?
**A.** Its IC50 is 406 nM.

**Q.** What about the IC50 [5] of the same compound?
**A.** The IC50 was 329 nM.

**Q.** What about the IC50 [6] of the same compound?
**A.** Its IC50 is 298 nM.

**Q.** And the viability, T/C [7]?
**A.** The viability, T/C was 81%.

**Q.** And the viability, T/C [8]?
**A.** The viability, T/C was 73.8%.

**Q.** What about the viability, T/C [9] of the same compound?
**A.** Its viability, T/C is 59%.

**Q.** What about the viability, T/C [10] of the same compound?
**A.** Its viability, T/C is 58.3%.

**Q.** What about the viability, T/C (second compound 0.000949 µM, first compound 0.316 µM) of the same compound?
**A.** Its viability, T/C is 46.5%.

**Q.** What about the viability, T/C (second compound 0.000949 µM, first compound 1 µM) of the same compound?
**A.** Its viability, T/C is 38.1%.

**Q.** And the viability, T/C [11]?
**A.** Its viability, T/C is 78.8%.

**Q.** And the viability, T/C [12]?
**A.** Its viability, T/C is 69.4%.

**Q.** And the viability, T/C [13]?
**A.** The viability, T/C was 62.8%.

**Q.** What about the viability, T/C [14] of the same compound?
**A.** Its viability, T/C is 67.1%.

**Q.** And the viability, T/C (second compound 0.003 µM, first compound 0.316 µM)?
**A.** The viability, T/C was 45.4%.

**Q.** What about the viability, T/C (second compound 0.003 µM, first compound 1 µM) of the same compound?
**A.** Its viability, T/C is 37.8%.

**Q.** And the viability, T/C [15]?
**A.** Its viability, T/C is 71.4%.

**Q.** What about the viability, T/C [16] of the same compound?
**A.** The viability, T/C was 72.5%.

**Q.** What about the viability, T/C [17] of the same compound?
**A.** Its viability, T/C is 67.6%.

**Q.** And the viability, T/C [18]?
**A.** The viability, T/C was 61.2%.

**Q.** What about the viability, T/C (second compound 0.00949 µM, first compound 0.316 µM) of the same compound?
**A.** The viability, T/C was 46.2%.

**Q.** And the viability, T/C (second compound 0.00949 µM, first compound 1 µM)?
**A.** Its viability, T/C is 34.1%.

**Q.** What about the viability, T/C [19] of the same compound?
**A.** The viability, T/C was 71.3%.

**Q.** What about the viability, T/C [20] of the same compound?
**A.** The viability, T/C was 72%.

**Q.** And the viability, T/C [21]?
**A.** The viability, T/C was 71%.

**Q.** And the viability, T/C [22]?
**A.** The viability, T/C was 58.8%.

**Q.** What about the viability, T/C (second compound 0.03 µM, first compound 0.316 µM) of the same compound?
**A.** The viability, T/C was 56.4%.

**Q.** What about the viability, T/C (second compound 0.03 µM, first compound 1 µM) of the same compound?
**A.** The viability, T/C was 35.6%.

**Q.** What about the viability, T/C [23] of the same compound?
**A.** The viability, T/C was 84.2%.

**Q.** What about the viability, T/C [24] of the same compound?
**A.** The viability, T/C was 75.7%.

**Q.** What about the viability, T/C [25] of the same compound?
**A.** Its viability, T/C is 68.7%.

**Q.** And the viability, T/C [26]?
**A.** The viability, T/C was 60.3%.

**Q.** What about the viability, T/C (second compound 0.0949 µM, first compound 0.316 µM) of the same compound?
**A.** The viability, T/C was 46.7%.

**Q.** What about the viability, T/C (second compound 0.0949 µM, first compound 1 µM) of the same compound?
**A.** Its viability, T/C is 45%.

**Q.** And the viability, T/C [27]?
**A.** Its viability, T/C is 72%.

**Q.** What about the viability, T/C [28] of the same compound?
**A.** The viability, T/C was 66.1%.

**Q.** And the viability, T/C [29]?
**A.** The viability, T/C was 56.5%.

**Q.** And the viability, T/C [30]?
**A.** Its viability, T/C is 66.8%.

**Q.** What about the viability, T/C (second compound 0.3 µM, first compound 0.316 µM) of the same compound?
**A.** The viability, T/C was 46%.

**Q.** What about the viability, T/C (second compound 0.3 µM, first compound 1 µM) of the same compound?
**A.** Its viability, T/C is 38.8%.

**Q.** Which results are given for CC(C)n1nc(-c2ccc3oc(N)nc3c2)c2c(N)ncnc21 + CCn1c(-c2cc(N3CCN(C)CC3)cnc2C(C)OC)c2c3cc(ccc31)-c1csc(n1)CC(NC(=O)C1CC1C)C(=O)N1CCCC(N1)C(=O)OCC(C)(C)C2?
**A.** IC50 [1]: 5.34 nM; IC50 [2]: 3.42 nM; IC50 [3]: < 0.316 nM; IC50 [4]: < 0.316 nM; IC50 [5]: < 0.316 nM; IC50 [6]: < 0.316 nM; viability, T/C (second compound 0.000949 µM, first compound 0.000316 µM): 73%; viability, T/C (second compound 0.000949 µM, first compound 0.001 µM): 70.4%; viability, T/C [7]: 58.7%; viability, T/C [8]: 38.6%; viability, T/C [9]: 24.8%; viability, T/C [10]: 13.5%; viability, T/C (second compound 0.003 µM, first compound 0.000316 µM): 49.6%; viability, T/C (second compound 0.003 µM, first compound 0.001 µM): 57.5%; viability, T/C [11]: 52.5%; viability, T/C [12]: 27.7%; viability, T/C [13]: 19.7%; viability, T/C [14]: 11%; viability, T/C (second compound 0.00949 µM, first compound 0.000316 µM): 36.5%; viability, T/C (second compound 0.00949 µM, first compound 0.001 µM): 36.6%; viability, T/C [15]: 28.2%; viability, T/C [16]: 19.7%; viability, T/C [17]: 11.6%; viability, T/C [18]: 7.59%; viability, T/C (second compound 0.03 µM, first compound 0.000316 µM): 22.3%; viability, T/C (second compound 0.03 µM, first compound 0.001 µM): 19.4%; viability, T/C [19]: 13.2%; viability, T/C [20]: 12.6%; viability, T/C [21]: 7.81%; viability, T/C [22]: 4.67%; viability, T/C (second compound 0.0949 µM, first compound 0.000316 µM): 15.6%; viability, T/C (second compound 0.0949 µM, first compound 0.001 µM): 13.8%; viability, T/C [23]: 12.8%; viability, T/C [24]: 10.3%; viability, T/C [25]: 7.44%; viability, T/C [26]: 4.77%; viability, T/C (second compound 0.3 µM, first compound 0.000316 µM): 13.9%; viability, T/C (second compound 0.3 µM, first compound 0.001 µM): 13.4%; viability, T/C [27]: 10.7%; viability, T/C [28]: 9.85%; viability, T/C [29]: 6.87%; viability, T/C [30]: 3.78%

**Q.** Which results are given for CCn1c(-c2cc(N3CCN(C)CC3)cnc2C(C)OC)c2c3cc(ccc31)-c1csc(n1)CC(NC(=O)C1CC1C)C(=O)N1CCCC(N1)C(=O)OCC(C)(C)C2 (stereo not drawn)?
**A.** viability, T/C (compound 0.000949 µM): 85.8% [middle of 8 runs]; viability, T/C (compound 0.003 µM): 65.7% [middle of 8 runs]; viability, T/C (compound 0.00949 µM): 37.1% [middle of 8 runs]; viability, T/C (compound 0.03 µM): 22.4% [middle of 8 runs]; viability, T/C (compound 0.0949 µM): 17.1% [middle of 8 runs]; viability, T/C (compound 0.3 µM): 14.2% [middle of 8 runs]; IC50 (compound alone, run of 08/26/2024): 5.72 nM [middle of 8 runs]

**Q.** CCc1c2c(nc3ccc(O)cc13)-c1cc3c(c(=O)n1C2)COC(=O)[C@]3(O)CC was tested. Which viability, T/C (compound 0.000949 µM) did it give?
**A.** The viability, T/C was 94.2% [middle of 4 runs].

**Q.** What about the viability, T/C (compound 0.003 µM) of the same compound?
**A.** Its viability, T/C is 26% [middle of 4 runs].

**Q.** What about the viability, T/C (compound 0.00949 µM) of the same compound?
**A.** Its viability, T/C is 6.94% [middle of 4 runs].

**Q.** And the viability, T/C (compound 0.03 µM)?
**A.** Its viability, T/C is 3.31% [middle of 4 runs].

**Q.** And the viability, T/C (compound 0.0949 µM)?
**A.** Its viability, T/C is 1.33% [middle of 4 runs].

**Q.** And the viability, T/C (compound 0.3 µM)?
**A.** The viability, T/C was 0.94% [middle of 4 runs].

**Q.** And the IC50 (curve of compound)?
**A.** Its IC50 is 1.88 nM [middle of 4 runs].
